According to PubChem BioAssay (NCI):
Values joined by “and” are separate entries in the source; they are usually repeats but may differ in a detail not shown here. Equal entries are not always repeated.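 Values below derive from 48-hour exposures of cells grown in 96-well plates, with endpoints linearly interpolated between the two concentrations bracketing the appropriate inhibition level. GI50 is the concentration that inhibits growth by half. TGI marks complete inhibition of growth.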

Legend:
Assay in all cases: DTP human tumour cell line panel, 48 h
BT-549 breast = test system: BT-549 breast
CAKI-1 renal = test system: CAKI-1 renal
COLO 205 colon = test system: COLO 205 colon
HOP-92 NSCLC = test system: HOP-92 NSCLC
KM12 colon = test system: KM12 colon
NCI-H226 lung = test system: NCI-H226 lung
NCI-H522 lung = test system: NCI-H522 lung
RPMI-8226 leukemia = test system: RPMI-8226 leukemia
RXF 393 renal = test system: RXF 393 renal
SW-620 colon = test system: SW-620 colon

Compound	GI50 (BT-549 breast)	TGI (BT-549 breast)	GI50 (CAKI-1 renal)	TGI (CAKI-1 renal)	GI50 (COLO 205 colon)	TGI (COLO 205 colon)	GI50 (HOP-92 NSCLC)	TGI (HOP-92 NSCLC)	GI50 (KM12 colon)	TGI (KM12 colon)	GI50 (NCI-H226 lung)	TGI (NCI-H226 lung)	GI50 (NCI-H522 lung)	TGI (NCI-H522 lung)	GI50 (RPMI-8226 leukemia)	TGI (RPMI-8226 leukemia)	GI50 (RXF 393 renal)	TGI (RXF 393 renal)	GI50 (SW-620 colon)	TGI (SW-620 colon)
O=C1c2ccc3c4c(ccc(c24)C(=O)N1CCCNCc1ccccc1Cl)C(=O)N(CCCNCc1ccccc1Cl)C3=O	0.87 µM	1.8 µM	0.317 µM	1.46 µM	0.0896 µM	0.166 µM	0.728 µM	2.37 µM	0.17 µM	0.637 µM	0.659 µM	1.49 µM	0.293 µM	0.974 µM	0.39 µM	1.86 µM	0.121 µM	0.366 µM	0.128 µM	0.361 µM
CCSc1nc(SCC)c2c(-c3ccc(OC)c(OC)c3)c(C#N)c(SCC)nc2n1	23.5 µM	> 100 µM	5.39 µM	25.3 µM	91.5 µM	> 100 µM	23.2 µM	76.7 µM	43.1 µM	> 100 µM	20.5 µM	54.6 µM	41.1 µM	> 100 µM	8.38 µM	94.4 µM	59.7 µM	> 100 µM	61.1 µM	> 100 µM
COc1ccc(Cl)c(Nc2nc3ccccc3nc2NS(=O)(=O)c2cccc(NC(=O)C(C)(C)N)c2)c1	4.87 µM and 4.42 µM	18.4 µM and > 10 µM	6.49 µM	> 10 µM	7.53 µM and 2.86 µM	22.3 µM and > 10 µM	1.57 µM and 0.358 µM	9.94 µM and 5.42 µM	12 µM and > 10 µM	30.9 µM and > 10 µM	15.3 µM and > 10 µM	40.2 µM and > 10 µM	14.7 µM and > 10 µM	30.5 µM and > 10 µM	13.4 µM and > 10 µM	52.8 µM and > 10 µM	1.89 µM and 2.62 µM	9.03 µM and > 10 µM	11.6 µM and > 10 µM	26.2 µM and > 10 µM
O=C(Nc1ccc(Oc2cccc(F)c2)c(Cl)c1)c1cnccn1	2.18 µM	> 50 µM	2.13 µM	> 50 µM	0.789 µM	> 50 µM	1.44 µM	> 50 µM	0.357 µM	> 50 µM	2.6 µM	> 50 µM	1.19 µM	> 50 µM	1.79 µM	> 50 µM	1.23 µM	3.72 µM	0.366 µM	> 50 µM
COc1ccc(/C=C(\C(=O)NCc2cccnc2)S(=O)(=O)c2ccccc2)cc1OC	2.45 µM	6.69 µM	3.29 µM	11.7 µM	2.77 µM	6.63 µM	2.59 µM	7.33 µM	2.81 µM	8.61 µM	3.13 µM	10.7 µM	1.7 µM	4.61 µM	2.43 µM	6.78 µM	2.08 µM	4.26 µM	2.95 µM	10.9 µM
OCCn1cnc2c(SCc3ccccc3)ncnc21		> 100 µM		> 100 µM		> 100 µM		> 100 µM		> 100 µM		> 100 µM		> 100 µM		> 100 µM		> 100 µM		> 100 µM
Cc1cnc(CNC(=O)c2c(=O)c3ccc(N4CCCN(C)CC4)nc3n3c2sc2ccccc23)cn1	12.6 µM	28.4 µM	2.49 µM	18 µM	1.07 µM	22.8 µM	16.4 µM	32.2 µM	1.5 µM	10.1 µM	7.44 µM	30.8 µM	5.94 µM	27.2 µM	1.54 µM	6.1 µM	3.39 µM	18.9 µM	0.237 µM	3.9 µM
NC(=O)c1ccc(-c2nc(-c3ccc4c(c3)OCO4)c(-c3ccccn3)[nH]2)cc1	> 25 µM and 22.5 µM	> 96.7 µM	> 25 µM and 22.7 µM	> 100 µM	> 25 µM and 31.4 µM	> 100 µM	> 25 µM and 11.4 µM	> 84.6 µM	> 25 µM and 35.7 µM	> 100 µM	> 25 µM and 22.2 µM	> 63.1 µM	> 25 µM and 22.3 µM	> 25 µM and 72.5 µM	24.3 µM and 20.7 µM	> 69.6 µM	> 25 µM and 12.6 µM	> 25 µM and 49.4 µM	> 25 µM and 65.6 µM	> 100 µM
COc1cc(OC)c(C(=O)/C=C/c2cccc(C#N)c2)c(OC)c1	0.611 µM	2.5 µM	2.03 µM	7.16 µM	1.79 µM	6.04 µM	0.701 µM	3.26 µM	1.64 µM	5.97 µM	1.28 µM	4.56 µM	0.992 µM	2.94 µM	0.981 µM	4.31 µM	0.797 µM	2.05 µM	1.46 µM	5.15 µM
CCC[CH2][Sn]1([CH2]CCC)[O]C2C(CO)OC(n3ccc(N)nc3=O)C2[O]1 (stereo not drawn)	1.42 µM	2.73 µM	1.19 µM	2.53 µM	1.48 µM	3.15 µM	0.361 µM	1.98 µM	1.68 µM	3.13 µM	2.02 µM	4.25 µM	0.186 µM	0.424 µM	0.29 µM	2.02 µM	1.22 µM	2.48 µM		
NC(=O)Nc1cc(-c2cccc(F)c2)sc1C(=O)N[C@H]1CCCNC1	0.15 µM and 0.334 µM	2.05 µM and 1.41 µM	0.184 µM and 0.888 µM	> 3.98 µM and 4.2 µM	0.169 µM and 0.216 µM	0.937 µM and 0.645 µM	0.0553 µM and 0.416 µM	1.2 µM and 1.71 µM	0.00626 µM and 0.0351 µM	6.38 µM and 3.3 µM	1.09 µM and 0.57 µM	8.69 µM and 2.9 µM	0.291 µM and 0.273 µM	4.87 µM and 2.23 µM	0.66 µM and 0.482 µM	> 8.22 µM and 6.11 µM	0.00554 µM and 0.0395 µM	0.0255 µM and 0.244 µM	0.284 µM and 0.423 µM	> 5.03 µM and 3.36 µM
CN(C)c1ccc(C(=NO)c2ccc(N(C)C)cc2)cc1	7.34 µM	> 100 µM	1.95 µM	7.86 µM	3.51 µM	22.4 µM	15.2 µM	> 100 µM	1.28 µM	> 100 µM	9.43 µM	> 100 µM	1.08 µM	> 100 µM	2.04 µM	7.94 µM	1.46 µM	5.03 µM	0.729 µM	> 100 µM
CCOC(=O)C1CCCCN1C(=O)c1ccc(Nc2cnc3cc(C(F)(F)F)ccc3n2)cc1 (stereo not drawn)	20.1 µM	38.7 µM	18 µM	33.9 µM	23 µM	71.8 µM		5.93 µM	13.1 µM	27.8 µM	24.5 µM	45.6 µM	30.4 µM	> 100 µM	2.2 µM	6.42 µM	3.23 µM	8.45 µM	17.8 µM	38.5 µM
COc1ccccc1CNCCCN1C(=O)c2ccc3c4c(ccc(c24)C1=O)C(=O)N(CCCN)C3=O	1.58 µM	2.99 µM	1.76 µM	4.73 µM	0.814 µM	2.12 µM	2.4 µM	5.65 µM	1.69 µM	3.25 µM	1.85 µM	3.92 µM	1.51 µM	2.97 µM	1.36 µM	4.52 µM	0.628 µM	1.83 µM	0.589 µM	2.33 µM
COC(=O)C1=C(C)NC(C)=C(C(=O)OCC(C)C)C1c1ccccc1[N+](=O)[O-] (stereo not drawn)	5.06 µM	17.1 µM	2.29 µM	11 µM	13.3 µM	26 µM	4.57 µM	19.8 µM	2.94 µM	> 100 µM	3.75 µM	15.1 µM	2.4 µM	10.7 µM	3.25 µM	25.8 µM	2.11 µM	8.31 µM	3.11 µM	11.4 µM
CC1=C(CCC(C)NCc2ccc(OCCCN3CCCCC3)cc2)C(C)(C)CCC1 (stereo not drawn)	2.08 µM	3.89 µM	1.82 µM	3.92 µM	0.197 µM	0.427 µM	1.26 µM	2.72 µM	1.7 µM	3.36 µM	3.82 µM	16.5 µM	1.45 µM	3.21 µM	2.29 µM	5.36 µM	1.6 µM	3.06 µM	1.6 µM	3.32 µM
O=c1c(O)c(-c2ccc(O)c(O)c2)oc2cc(O)cc(O)c12	13.3 µM	77.7 µM	20.4 µM	> 100 µM	60.8 µM	> 100 µM	6.16 µM	> 74.8 µM	9.4 µM	59.3 µM and > 100 µM	16.3 µM	68.5 µM	5.54 µM	> 100 µM	10.2 µM	86.9 µM	11.7 µM	50.9 µM and > 100 µM	26.7 µM	> 100 µM and 59.8 µM
COc1cccc(-c2cc3c4c(nc5ccccc53)C(=O)c3cccnc3-c4n2)c1	10.6 µM	28.1 µM	3.36 µM	11.5 µM	5.56 µM	10.9 µM	4.3 µM	19.8 µM	1.54 µM	3.75 µM	6.27 µM	22.3 µM	0.429 µM	2.01 µM	1.2 µM	4.22 µM	2.47 µM	9.91 µM	1.32 µM	3.88 µM
Nc1c(C(=O)c2cccc(-c3cccnc3)c2)cnn1-c1ccc(F)cc1F	5.91 µM	> 25 µM	4.53 µM	> 25 µM	1.19 µM	> 25 µM	1.94 µM	17.4 µM	1.21 µM	> 25 µM	6.96 µM	> 25 µM	1.57 µM	> 15 µM	9.54 µM	> 25 µM	7.91 µM	> 25 µM	1.27 µM	> 25 µM
N#CSCc1ccc(Cl)c(CSC#N)c1	0.303 µM	11.2 µM	0.169 µM	21.7 µM	0.0513 µM	11.4 µM	0.25 µM	6.51 µM	0.545 µM	> 41.9 µM	3.11 µM	10.3 µM	0.0816 µM	9.06 µM	0.186 µM	28.1 µM	0.559 µM	12.3 µM	0.0395 µM	15.7 µM
C=C1CC[C@@H]2[C@](C)(COC(C)=O)[C@H](OC(C)=O)CC[C@@]2(C)[C@@H]1CC(Nc1ccc(S(=O)(=O)Nc2ccc(Cl)nn2)cc1)C1=CCOC1=O (stereo partly drawn)	1.58 µM	3.14 µM	2.28 µM	10 µM	1.46 µM	3.16 µM	2.7 µM	7.89 µM	1.7 µM	3.49 µM			0.754 µM	2.1 µM	0.445 µM	3.04 µM	1.77 µM	3.29 µM	1.07 µM	2.8 µM
O=[N+]([O-])c1ccc(N2CCC(CCCC3CCN(c4ccc([N+](=O)[O-])cc4[N+](=O)[O-])CC3)CC2)c([N+](=O)[O-])c1		71.8 µM		41.1 µM		31.8 µM		26.4 µM		30.7 µM		56.6 µM		42.8 µM		43.3 µM		35.4 µM		57.4 µM
O=[N+]([O-])c1ccc(N=Nc2ccc(O)c3ccccc23)cc1	5.07 µM	46.7 µM	4.17 µM	> 100 µM	13.2 µM	32.1 µM	0.281 µM	2.94 µM	3.21 µM	> 100 µM	26.3 µM	> 100 µM	2.23 µM	8.18 µM	1.59 µM	6.55 µM	4.87 µM	39.4 µM	3.33 µM	> 100 µM
Cc1nn(-c2ccc([N+](=O)[O-])cc2)c2ncnc(N/N=C/c3ccccc3O)c12	0.431 µM	> 42.4 µM	0.496 µM	1.82 µM	0.385 µM	10.4 µM	0.806 µM	4.63 µM	0.379 µM	> 100 µM	2.56 µM	> 26.2 µM	0.365 µM	7.56 µM	0.619 µM	> 100 µM	0.366 µM	1.62 µM		
COc1ccc(CC(=O)c2ccc(O)cc2O)cc1	66.2 µM	> 100 µM	59.6 µM	> 100 µM	> 100 µM	> 100 µM	12.3 µM	62.1 µM	> 100 µM	> 100 µM	> 100 µM	> 100 µM	60.8 µM	> 100 µM	34 µM	> 100 µM	> 100 µM	> 100 µM	> 100 µM	> 100 µM
